Test results as given in PMC8443589, “Modelling human liver fibrosis in the context of non-alcoholic steatohepatitis using a microphysiological system” (Communications Biology, 2021).

How the values were obtained:
Format in all cases: cell-based, human
[1] = tested on: liver MPS NASH model (PHH, KC and HSC co-cultures); assay: Cue study: albumin production (ELISA)
[2] = tested on: liver MPS NASH model (PHH, KC and HSC co-cultures); assay: Cue study: secreted cytokines and chemokines (Luminex) with varying NPC number and added cues (Fig 5a, 5b)
Text: There is only limited understanding of the pathogenic drivers of NASH and their interaction, principally due to a lack of translational models that are amenable to detailed molecular analysis[2],[34]. Here, a systems biology ‘cue-signal-analysis’ paradigm[35],[36] was utilised to produce large factorial datasets to enable the identification of molecular pathways of importance. […] To create varying set ups of the NASH microtissues we created hepatocyte microtissues in the MPS with high numbers of NPC (60,000 KC and HSC—equivalent to 10% of microtissue population) and low numbers of NPCs (6000 KC and HSC—equivalent to 1% of microtissue), representing physiological and non-physiological cell ratios respectively. Next, we took these different microtissues and cultured them in media with or without FFA. Finally, we supplemented the media with lipopolysaccharide (LPS), TGFβ, fructose or cholesterol either as single ‘cues’, in pairs or all together (Fig. 4a). ‘Cues’ were selected for clinical association with NASH. LPS, is a pleiotropic inflammatory molecule, it is proposed to reach the liver via the hepatic portal vein after release from the gastrointestinal tract, contributing to disease progression[37],[38]. TGFβ has been extensively studied in relation to fibrosis due to its regulation of genes controlling collagen and matrix-modifying enzymes. Fructose is a key substrate for de-novo lipogenesis, a process that has been identified as a key event in lipid accumulation within NAFLD patients. Finally, cholesterol accumulation has also been linked to NASH disease aetiology.
Assessment of gene expression changes was supplemented by assessment of the secretome produced by NASH microtissues in the MPS after exposure to the various cues. Increased pro-inflammatory cytokine secretion is a defining characteristic in NASH patients, so we conducted a Luminex cytokine array covering 42 different biomarkers, cytokines and chemokines secreted into the culture media of the different microtissues at multiple time points. […]

[3] = tested on: liver MPS NASH model (PHH, KC and HSC co-cultures); assay: Cue study: pro-fibrotic biomarkers TIMP-1, pro-collagen 1, fibronectin (Fig 5c); conditions: fat medium + cue
Text: Assessment of gene expression changes was supplemented by assessment of the secretome produced by NASH microtissues in the MPS after exposure to the various cues. Increased pro-inflammatory cytokine secretion is a defining characteristic in NASH patients, so we conducted a Luminex cytokine array covering 42 different biomarkers, cytokines and chemokines secreted into the culture media of the different microtissues at multiple time points. We consistently detected 27 out of the 42 biomarkers and observed that there was differential expression of cytokines and chemokines driven by the different cues applied to the micro-tissue (Fig. 5a, b). The LPS cue and the presence of higher NPC numbers were responsible for driving the largest increase in cytokine and chemokine release, with the largest increases in cytokines measured on day 14 (Fig. 5b). […] Similarly, to the cytokine production, these changes were not further enhanced by combining cues, as all the cue combinations containing TGFβ had the highest expression (Supp. Fig. 17c).
Fig. 5 Systems biology interrogation of liver MPS NASH model to determine physiologically relevant cues that promote soluble biomarker changes to mimic advanced NASH disease state. PHH, KC and HSC co-cultures were cultured in the MPS platform under a variety of conditions for 14 days to test number of NPCs, presence of fat, fructose, cholesterol, LPS and TGFβ for effects on the soluble biomarker profile of the liver MPS NASH model. Expression of biomarkers, cytokines and chemokines were compared, all concentrations were normalised by Z-transformation to allow comparison and shown relative to mean for each marker (white = not detected). a Cytokine expression compared with varying levels of NPCs; b for the high NPC group in the presence of additional cues; c Expression of pro-fibrotic biomarkers with varying NPC content and with additional varying cues in high NPC condition (additional data in Supp. Fig. 17). d Graphical summary of the changes that occur in the NASH model in the presence of Fat and Fat + TGFβ. All data were generated from a minimum of three independent replicate samples per condition.
The MPS LC12 plates consists of 12 individual bioreactors that contain pneumatically driven micro-pumps to recirculate cell culture medium through a collagen-coated scaffold. Cells were cultured using the protocol previously described[20],[21], but briefly, PHH were seeded at a density of 6 × 10^5 viable cells per well on the LC12 plates with each NPC population (KC and/or HSC) at a density of 6 × 10^4 viable cells per well. Each well contained a final volume of 1.6 mL of medium per well and maintained under a flow rate of 1.0 µL/s. Cells were seeded in Williams E medium containing primary hepatocyte thawing and plating supplements (Life Technologies, USA) and cultured initially under downward flow for 8 h before the flow was automatically reversed to upward flow for the next 16 h of culture. Microtissues were then cultured in either HEP-Lean or HEP-Fat medium, both media’s are proprietary to CN Bio Innovations Ltd. The HEP-Fat medium is a derivative of the HEP-LEAN medium and contains a mixture of saturated and unsaturated FFAs, as well as physiologically relevant quantities of insulin and sugars. Complete media changes were performed on all wells every 48–72 h. For certain experiments, the media was supplemented with additional additives from day 4 onwards: 1 ng/ml LPS (lipopolysaccharides from Escherichia coli O111:B4) (Sigma Aldrich, UK), 1 ng/ml recombinant TGF beta 1 protein (Abcam, UK); 500 µM Fructose (Sigma Aldrich, UK), 50 µg/ml Cholesterol (Sigma Aldrich, UK). […]

CC(C)CCC[C@@H](C)[C@H]1CC[C@H]2[C@@H]3CC=C4C[C@@H](O)CC[C@]4(C)[C@H]3CC[C@]12C [Cholesterol]
Albumin production [1]: to a lesser extent | EGF relative expression (z-transformation) ([2]; Day 6, Fat media + cue): -2.017 | Eotaxin relative expression (z-transformation) ([2]; Day 6, Fat media + cue): -0.7967 | FGF-2 relative expression (z-transformation) ([2]; Day 6, Fat media + cue): -0.2249 | Fit-3L relative expression (z-transformation) ([2]; Day 6, Fat media + cue): -1.968 | Fractalkine relative expression (z-transformation) ([2]; Day 6, Fat media + cue): -1.501 | G-CSF relative expression (z-transformation) ([2]; Day 6, Fat media + cue): -0.1828 | GM-CSF relative expression (z-transformation) ([2]; Day 6, Fat media + cue): -0.6958 | GRO relative expression (z-transformation) ([2]; Day 6, Fat media + cue): -0.8479 | IFN-a2 relative expression (z-transformation) ([2]; Day 6, Fat media + cue): -1.086 | IL-1RA relative expression (z-transformation) ([2]; Day 6, Fat media + cue): -1.579 | IL-4 relative expression (z-transformation) ([2]; Day 6, Fat media + cue): -1.537 | IL-6 relative expression (z-transformation) ([2]; Day 6, Fat media + cue): -0.8492 | IL-7 relative expression (z-transformation) ([2]; Day 6, Fat media + cue): -1.138 | IL-8 relative expression (z-transformation) ([2]; Day 6, Fat media + cue): -1.037 | IL-15 relative expression (z-transformation) ([2]; Day 6, Fat media + cue): -1.447 | IP-10 relative expression (z-transformation) ([2]; Day 6, Fat media + cue): -1.086 | MCP-1 relative expression (z-transformation) ([2]; Day 6, Fat media + cue): -1.585 | MCP-3 relative expression (z-transformation) ([2]; Day 6, Fat media + cue): -1.263 | MDC relative expression (z-transformation) ([2]; Day 6, Fat media + cue): -0.4545 | MIP-1a relative expression (z-transformation) ([2]; Day 6, Fat media + cue): -0.7293 | MIP-1b relative expression (z-transformation) ([2]; Day 6, Fat media + cue): -0.9104 | TNFa relative expression (z-transformation) ([2]; Day 6, Fat media + cue): -0.774 | VEGF relative expression (z-transformation) ([2]; Day 6, Fat media + cue): -0.01821 | EGF relative expression (z-transformation) ([2]; Day 11, Fat media + cue): 1.504 | Eotaxin relative expression (z-transformation) ([2]; Day 11, Fat media + cue): -0.8044 | FGF-2 relative expression (z-transformation) ([2]; Day 11, Fat media + cue): 0.794 | Fractalkine relative expression (z-transformation) ([2]; Day 11, Fat media + cue): -1.145 | G-CSF relative expression (z-transformation) ([2]; Day 11, Fat media + cue): -0.8882 | GRO relative expression (z-transformation) ([2]; Day 11, Fat media + cue): -1.084 | IFN-a2 relative expression (z-transformation) ([2]; Day 11, Fat media + cue): -0.9638 | IL-1RA relative expression (z-transformation) ([2]; Day 11, Fat media + cue): -1.623 | IL-4 relative expression (z-transformation) ([2]; Day 11, Fat media + cue): -1.08 | IL-6 relative expression (z-transformation) ([2]; Day 11, Fat media + cue): -0.9589 | IL-7 relative expression (z-transformation) ([2]; Day 11, Fat media + cue): -0.957 | IL-8 relative expression (z-transformation) ([2]; Day 11, Fat media + cue): -1.364 | IL-15 relative expression (z-transformation) ([2]; Day 11, Fat media + cue): -1.997 | IP-10 relative expression (z-transformation) ([2]; Day 11, Fat media + cue): -1.199 | MCP-1 relative expression (z-transformation) ([2]; Day 11, Fat media + cue): -2.479 | MCP-3 relative expression (z-transformation) ([2]; Day 11, Fat media + cue): -1.098 | MDC relative expression (z-transformation) ([2]; Day 11, Fat media + cue): -1.98 | MIP-1a relative expression (z-transformation) ([2]; Day 11, Fat media + cue): -0.8147 | MIP-1b relative expression (z-transformation) ([2]; Day 11, Fat media + cue): -0.9274 | VEGF relative expression (z-transformation) ([2]; Day 11, Fat media + cue): -1.0705 | Eotaxin relative expression (z-transformation) ([2]; Day 14, Fat media + cue): -0.1613 | FGF-2 relative expression (z-transformation) ([2]; Day 14, Fat media + cue): -0.6319 | Fractalkine relative expression (z-transformation) ([2]; Day 14, Fat media + cue): -0.3551 | G-CSF relative expression (z-transformation) ([2]; Day 14, Fat media + cue): -1.591 | GM-CSF relative expression (z-transformation) ([2]; Day 14, Fat media + cue): -1.001 | GRO relative expression (z-transformation) ([2]; Day 14, Fat media + cue): -0.8633 | IFN-a2 relative expression (z-transformation) ([2]; Day 14, Fat media + cue): -1.669 | IL-1RA relative expression (z-transformation) ([2]; Day 14, Fat media + cue): -1.544 | IL-4 relative expression (z-transformation) ([2]; Day 14, Fat media + cue): -1.577 | IL-6 relative expression (z-transformation) ([2]; Day 14, Fat media + cue): -0.7817 | IL-7 relative expression (z-transformation) ([2]; Day 14, Fat media + cue): -1.113 | IL-8 relative expression (z-transformation) ([2]; Day 14, Fat media + cue): -1.061 | IL-15 relative expression (z-transformation) ([2]; Day 14, Fat media + cue): -1.074 | IP-10 relative expression (z-transformation) ([2]; Day 14, Fat media + cue): -0.9907 | MCP-1 relative expression (z-transformation) ([2]; Day 14, Fat media + cue): -1.142 | MCP-3 relative expression (z-transformation) ([2]; Day 14, Fat media + cue): -1.036 | MDC relative expression (z-transformation) ([2]; Day 14, Fat media + cue): -1.936 | MIP-1a relative expression (z-transformation) ([2]; Day 14, Fat media + cue): -0.7839 | MIP-1b relative expression (z-transformation) ([2]; Day 14, Fat media + cue): -0.9403 | TNFa relative expression (z-transformation) ([2]; Day 14, Fat media + cue): -0.8637 | VEGF relative expression (z-transformation) ([2]; Day 14, Fat media + cue): 3.004 | TNFα ([2]; day 14): greatest increase | Fibronectin (Fold change in cytokine production compared to control) ([3]; Day 6, high NPC): 0.5839 | Pro-collagen 1 (Fold change in cytokine production compared to control) ([3]; Day 6, high NPC): -0.1232 | TIMP-1 (Fold change in cytokine production compared to control) ([3]; Day 6, high NPC): -0.5668 | Fibronectin (Fold change in cytokine production compared to control) ([3]; Day 11, high NPC): 0.3927 | Pro-collagen 1 (Fold change in cytokine production compared to control) ([3]; Day 11, high NPC): 0.4365 | TIMP-1 (Fold change in cytokine production compared to control) ([3]; Day 11, high NPC): -0.1305 | Fibronectin (Fold change in cytokine production compared to control) ([3]; Day 14, high NPC): -0.4332 | Pro-collagen 1 (Fold change in cytokine production compared to control) ([3]; Day 14, high NPC): 0.3527 | TIMP-1 (Fold change in cytokine production compared to control) ([3]; Day 14, high NPC): -0.3247
